Measured values taken from ChEMBL document CHEMBL1149799, “Bioactive peroxides as potential therapeutic agents” (Eur J Med Chem, 2008).
Values after ≈ are worked out from the molar mass of the structure shown.

What was measured:
P388 [1] = assay: Cytotoxicity against mouse P388 cells; assay type: functional, cell-based; settings: Mus musculus, P388; read-out: ED50 (the source's name)
[2] = Cytotoxicity against human KB16 cells; assay type: functional, cell-based
[3] = molecular target: Protein kinase C epsilon type (Homo sapiens, UniProt Q02156); assay: Antagonist activity at protein kinase C epsilon; assay type: functional
P388 [4] = assay: Cytotoxicity against mouse P388 cells at 0.05 ug/ml; assay type: functional
EL4 = assay: Cytotoxicity against […] cells; assay type: functional, cell-based; settings: Mus musculus
[5] = molecular target: Protein kinase C zeta type (Homo sapiens, UniProt Q05513); assay: Antagonist activity at protein kinase C zeta; assay type: functional
[6] = molecular target: Protein kinase C gamma type (Homo sapiens, UniProt P05129); assay: Antagonist activity at protein kinase C gamma; assay type: functional
SK-OV-3 = assay: Cytotoxicity against human SK-OV-3 cells; assay type: functional, cell-based
T47D = assay: Cytotoxicity against human T47D cells; assay type: functional
HOP-62 = assay: Cytotoxicity against human HOP62 cells; assay type: functional
TK-10 = assay: Cytotoxicity against human TK10 cells; assay type: functional
OVCAR-4 = assay: Cytotoxicity against human OVCAR4 cells; assay type: functional, cell-based
[7] = Cytotoxicity against mouse Ehrlich Ascites carcinoma by […] assay; assay type: functional
[8] = Cytotoxicity against human RPMI8266 cells; assay type: functional
NCI-H23 = assay: Cytotoxicity against human NCI-H23 cells; assay type: functional, cell-based
IGROV-1 = assay: Cytotoxicity against human IGROV1 cells; assay type: functional
ACHN = assay: Cytotoxicity against human ACHN cells; assay type: functional, cell-based
SNB-19 = assay: Cytotoxicity against human SNB19 cells; assay type: functional
OVCAR-5 = assay: Cytotoxicity against human OVCAR5 cells; assay type: functional, cell-based
UACC-62 = assay: Cytotoxicity against human UACC62 cells; assay type: functional
COLO 205 = assay: Cytotoxicity against human COLO205 cells
[9] = Cytotoxicity against human RES MDA-MB-231/ATCC cells; assay type: functional
PC-3 = assay: Cytotoxicity against human PC3 cells; assay type: functional, cell-based; settings: Homo sapiens, PC-3
NCI-H460 = assay: Cytotoxicity against human NCI-H460 cells; assay type: functional, cell-based; settings: Homo sapiens, NCI-H460; read-out: GI50
HCT-15 = assay: Cytotoxicity against human HCT15 cells; assay type: functional, cell-based
SN12C = assay: Cytotoxicity against human SN12C cells; assay type: functional
[10] = Cytotoxicity against human MCF7/ADR-RES cells; assay type: functional; settings: NCI/ADR-RES
HCC 2998 = assay: Cytotoxicity against human HCC2998 cells; assay type: functional, cell-based
EKVX = assay: Cytotoxicity against human EKVX cells; assay type: functional
[11] = Cytotoxicity against human CFUGM; assay type: functional; settings: CFU-GM
SK-MEL-5 = assay: Cytotoxicity against human SK-MEL-5 cells; assay type: functional
A549 = assay: Cytotoxicity against human A549 cells; assay type: functional, cell-based; settings: Homo sapiens, A549
HT-29 = assay: Cytotoxicity against human HT29 cells; assay type: functional
U-251 = assay: Cytotoxicity against human U251 cells; assay type: functional, cell-based
[12] = Cytotoxicity against human K652 cells; assay type: functional
MOLT-4 = assay: Cytotoxicity against human MOLT4 cells
SK-MEL-2 = assay: Cytotoxicity against human SK-MEL-2 cells; assay type: functional
DU-145 = assay: Cytotoxicity against human DU145 cells; assay type: functional, cell-based; settings: Homo sapiens, DU-145; read-out: GI50
BT-549 = assay: Cytotoxicity against human BT-549 cells; assay type: functional
UACC-257 = assay: Cytotoxicity against human UACC257 cells; assay type: functional
[13] = Cytotoxicity against human CCRF-GEM cells; assay type: functional
MCF7 = assay: Cytotoxicity against human MCF7 cells; assay type: functional, cell-based; settings: Homo sapiens, MCF7; read-out: GI50
NCI-H322M = assay: Cytotoxicity against human NCI-H322M cells; assay type: functional
A498 = assay: Cytotoxicity against human A498 cells; assay type: functional
UO-31 = assay: Cytotoxicity against human UO31 cells; assay type: functional
[14] = Cytotoxicity against human HB60 cells; assay type: functional
OVCAR-3 = assay: Cytotoxicity against human OVCAR-3 cells; assay type: functional, cell-based
SW-620 = assay: Cytotoxicity against human SW620 cells; assay type: functional
SK-MEL-28 = assay: Cytotoxicity against human SK-MEL-28 cells; assay type: functional
HOP-92 = assay: Cytotoxicity against human HOP92 cells; assay type: functional
LOX IMVI = assay: Cytotoxicity against human LOXI MVI cells; assay type: functional, cell-based
HCT-116 = assay: Cytotoxicity against human HCT116 cells; assay type: functional, cell-based
KM12 = assay: Cytotoxicity against human KM12 cells; assay type: functional, cell-based
786-0 = assay: Cytotoxicity against human renal 7860 cells by soft agar assay; assay type: functional
MDA-N = assay: Cytotoxicity against human MDA-N cells; assay type: functional
CAKI-1 = assay: Cytotoxicity against human CAKI1 cells; assay type: functional
Aspergillus fumigatus = assay: Antifungal activity against Aspergillus fumigatus; assay type: functional
Candida albicans = assay: Antifungal activity against Candida albicans; assay type: functional
RXF 393 = assay: Cytotoxicity against human RXF393 cells; assay type: functional
SF-295 = assay: Cytotoxicity against human SF295 cells; assay type: functional, cell-based
[15] = Cytotoxicity against mouse Ehrlich Ascites carcinoma by clonogenic assay; assay type: functional
OVCAR-8 = assay: Cytotoxicity against human OVCAR8 cells; assay type: functional, cell-based
SNB-75 = assay: Cytotoxicity against human SNB75 cells; assay type: functional, cell-based
MDA-MB-435 = assay: Cytotoxicity against human MDA-MB-435 cells; assay type: functional
HCT-8 = assay: Cytotoxicity against human HCT8 cells at 10 ug/mL; assay type: functional
P388 [16] = assay: Cytotoxicity against mouse P388 cells at 0.5 ug/mL; assay type: functional
HeLa = assay: Cytotoxicity against human HeLa cells; assay type: functional, cell-based
K562 = assay: Cytotoxicity against human K562 cells; assay type: functional, cell-based
PBMC [17] = assay: Cytotoxicity against human PBMC cells; assay type: cell-based
[18] = Cytotoxicity against human Fem-X cells; assay type: functional, cell-based
PBMC [19] = assay: Cytotoxicity against human PHA-activated PBMC cells; assay type: cell-based

Chain of Protein kinase C epsilon type (Q02156 whole entry): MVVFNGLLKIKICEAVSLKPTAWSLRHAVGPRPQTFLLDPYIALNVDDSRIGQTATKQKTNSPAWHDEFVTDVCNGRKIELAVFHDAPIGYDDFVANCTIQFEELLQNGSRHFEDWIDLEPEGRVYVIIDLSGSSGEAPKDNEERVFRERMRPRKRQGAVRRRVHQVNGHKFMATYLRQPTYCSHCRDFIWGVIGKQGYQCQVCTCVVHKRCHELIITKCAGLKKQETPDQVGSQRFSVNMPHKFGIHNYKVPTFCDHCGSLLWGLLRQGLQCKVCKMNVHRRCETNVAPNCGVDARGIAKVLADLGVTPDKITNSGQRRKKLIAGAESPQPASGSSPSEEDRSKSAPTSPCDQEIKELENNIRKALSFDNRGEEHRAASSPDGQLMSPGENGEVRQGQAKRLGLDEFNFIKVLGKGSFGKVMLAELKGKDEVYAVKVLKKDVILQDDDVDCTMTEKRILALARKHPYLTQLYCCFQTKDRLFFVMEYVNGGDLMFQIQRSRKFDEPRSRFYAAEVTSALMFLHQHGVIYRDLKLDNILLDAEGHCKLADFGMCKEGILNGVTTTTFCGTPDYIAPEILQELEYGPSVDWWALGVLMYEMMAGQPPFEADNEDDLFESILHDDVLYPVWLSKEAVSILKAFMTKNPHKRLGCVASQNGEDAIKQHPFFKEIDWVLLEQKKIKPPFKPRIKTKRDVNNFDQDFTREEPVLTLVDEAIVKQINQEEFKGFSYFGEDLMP
Chain of Protein kinase C zeta type (Q05513 whole entry): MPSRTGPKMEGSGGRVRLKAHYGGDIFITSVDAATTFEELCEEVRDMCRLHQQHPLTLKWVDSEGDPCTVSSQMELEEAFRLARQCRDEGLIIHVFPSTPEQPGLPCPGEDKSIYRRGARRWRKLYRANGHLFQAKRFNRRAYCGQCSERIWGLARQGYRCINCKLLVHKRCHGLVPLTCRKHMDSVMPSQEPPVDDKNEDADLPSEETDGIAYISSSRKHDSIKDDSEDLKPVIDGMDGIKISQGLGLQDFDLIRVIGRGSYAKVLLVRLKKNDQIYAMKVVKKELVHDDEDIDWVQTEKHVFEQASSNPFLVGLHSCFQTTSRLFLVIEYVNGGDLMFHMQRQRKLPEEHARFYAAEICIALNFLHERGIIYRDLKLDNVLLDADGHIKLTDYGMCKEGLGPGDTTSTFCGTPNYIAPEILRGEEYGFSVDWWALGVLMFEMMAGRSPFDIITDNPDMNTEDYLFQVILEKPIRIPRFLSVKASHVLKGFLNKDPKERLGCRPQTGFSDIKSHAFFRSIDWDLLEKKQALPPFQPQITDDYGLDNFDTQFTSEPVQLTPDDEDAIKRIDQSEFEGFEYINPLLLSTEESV

SMILES: CCCCCCCCCCCCCCCC[C@@]1(OC)C=C[C@@H](CC(=O)OC)OO1 [CHONDRILLIN]
- EC50 (P388 [1]): > 10 µg/mL
- IC50 [2]: 0.74 µg/mL (≈ 1.79 µM)
- IC50 [3]: 72700 nM
- inhibition at 0.05 µg/mL (P388 [4]): 50%
- IC50 (EL4): 0.4 µg/mL (≈ 0.969 µM)
- IC50 [5]: 104000 nM
- IC50 [6]: > 364000 nM

SMILES: C[C@H]1[C@H](O[C@H]2O[C@@H]3O[C@]4(C)CC[C@H]5[C@H](C)CC[C@@H]([C@H]2C)[C@@]35OO4)O[C@@H]2O[C@]3(C)CC[C@H]4[C@H](C)CC[C@@H]1[C@@]24OO3
- GI50 (SK-OV-3): > 25 µg/mL
- GI50 (T47D): 1.2 µg/mL
- GI50 (HOP-62): > 25000 nM
- GI50 (TK-10): 1.7 µg/mL
- GI50 (OVCAR-4): 8.6 µg/mL
- IC50 [7]: 31200 nM
- GI50 [8]: 660 nM
- GI50 (NCI-H23): 1150 nM
- GI50 (IGROV-1): > 25 µg/mL
- GI50 (ACHN): 3.5 µg/mL
- GI50 (SNB-19): > 25000 nM
- GI50 (OVCAR-5): > 25 µg/mL
- GI50 (UACC-62): 2 µg/mL
- GI50 (COLO 205): 1170 nM
- GI50 [9]: > 25 µg/mL
- GI50 (PC-3): 0.19 µg/mL
- GI50 (NCI-H460): > 25000 nM
- GI50 (HCT-15): 740 nM
- GI50 (SN12C): > 16.8 µg/mL
- GI50 [10]: 1.45 µg/mL
- GI50 (HCC 2998): > 25000 nM
- GI50 (EKVX): 2160 nM
- IC50 [11]: 52500 nM
- GI50 (SK-MEL-5): > 3.6 µg/mL
- GI50 (A549): 18700 nM
- GI50 (HT-29): 1320 nM
- GI50 (U-251): > 25000 nM
- GI50 [12]: 1040 nM
- GI50 (MOLT-4): 2370 nM
- GI50 (SK-MEL-2): 16.9 µg/mL
- GI50 (DU-145): > 25 µg/mL
- GI50 (BT-549): 1.3 µg/mL
- GI50 (UACC-257): > 25 µg/mL
- GI50 [13]: 7510 nM
- GI50 (MCF7): 1.51 µg/mL
- GI50 (NCI-H322M): > 25000 nM
- GI50 (A498): > 25 µg/mL
- GI50 (UO-31): 1.7 µg/mL
- GI50 [14]: 610 nM
- GI50 (OVCAR-3): 8.2 µg/mL
- GI50 (SW-620): 1160 nM
- GI50 (SK-MEL-28): > 25 µg/mL
- GI50 (HOP-92): 3660 nM
- GI50 (LOX IMVI): 1 µg/mL
- GI50 (HCT-116): 710 nM
- GI50 (KM12): 880 nM
- GI50 (786-0): 22 µg/mL
- GI50 (MDA-N): 3.68 µg/mL
- GI50 (CAKI-1): > 25 µg/mL

SMILES: CC/C=C/C(CC)C/C=C/[C@@]1(CC)C[C@H](CC)[C@@H](CC(=O)O)OO1 (stereo not given in full)
- IC90 (Aspergillus fumigatus): 5.6 µg/mL (≈ 16.5 µM)
- MIC (Candida albicans): 5 µg/mL (≈ 14.8 µM)

SMILES: C[C@H]1[C@H](O[C@@H]2O[C@@H]3O[C@]4(C)CC[C@H]5[C@H](C)CC[C@@H]([C@H]2C)[C@@]35OO4)O[C@@H]2O[C@]3(C)CC[C@H]4[C@H](C)CC[C@@H]1[C@@]24OO3
- GI50 (RXF 393): 470 nM
- GI50 (SF-295): 590 nM
- GI50 (SK-OV-3): 480 nM
- GI50 (T47D): 30 nM
- GI50 (HOP-62): 10200 nM
- GI50 (TK-10): 240 nM
- GI50 (OVCAR-4): 290 nM
- IC50 [7]: 3600 nM
- GI50 [8]: 13 nM
- IC50 [15]: 55600 nM
- GI50 (NCI-H23): 46 nM
- GI50 (IGROV-1): 1050 nM
- GI50 (ACHN): 100 nM
- GI50 (SNB-19): 1710 nM
- GI50 (OVCAR-5): 390 nM
- GI50 (UACC-62): 81 nM
- GI50 (COLO 205): 44 nM
- GI50 [9]: 400 nM
- GI50 (PC-3): 15 nM
- GI50 (OVCAR-8): 90 nM
- GI50 (NCI-H460): 68 nM
- GI50 (HCT-15): 24 nM
- GI50 (SN12C): 280 nM
- GI50 [10]: 220 nM
- GI50 (HCC 2998): 450 nM
- GI50 (EKVX): 76 nM
- IC50 [11]: 3600 nM
- GI50 (SK-MEL-5): 53 nM
- GI50 (A549): 98 nM
- GI50 (HT-29): 50 nM
- GI50 (U-251): 65 nM
- GI50 [12]: 68 nM
- GI50 (MOLT-4): 57 nM
- GI50 (SK-MEL-2): 500 nM
- GI50 (DU-145): 5100 nM
- GI50 (BT-549): 58 nM
- GI50 (UACC-257): 93 nM
- GI50 (SNB-75): 220 nM
- GI50 [13]: 45 nM
- GI50 (MCF7): 110 nM
- GI50 (MDA-MB-435): 61 nM
- GI50 (NCI-H322M): 10800 nM
- GI50 (A498): 11600 nM
- GI50 (UO-31): 63 nM
- GI50 [14]: 28 nM
- GI50 (OVCAR-3): 460 nM
- GI50 (SW-620): 43 nM
- GI50 (SK-MEL-28): 12300 nM
- GI50 (HOP-92): 121 nM
- GI50 (LOX IMVI): 30 nM
- GI50 (HCT-116): 19 nM
- GI50 (KM12): 33 nM
- GI50 (786-0): 370 nM
- GI50 (MDA-N): 590 nM
- GI50 (CAKI-1): 280 nM

SMILES: CCCCCCCCCCCCCCC[C@]1(C)C[C@](C)(CC(=O)O)OO1
- inhibition at 10 µg/mL (HCT-8): 90%
- inhibition at 0.5 µg/mL (P388 [16]): 90%

SMILES: C=C1C(=O)O[C@H]2C1C[C@@H](OC(C)=O)[C@@](C)(O)[C@@]13C=C[C@@](C)(OO1)[C@H]23 (stereo not given in full) [APRESSIN]
- IC50 (HeLa): 7.36 µg/mL (≈ 21.9 µM)
- IC50 (K562): 4.44 µg/mL (≈ 13.2 µM)
- IC50 (PBMC [17]): 15.9 µg/mL (≈ 47.2 µM)
- IC50 [18]: 5.27 µg/mL (≈ 15.7 µM)
- IC50 (PBMC [19]): 8.78 µg/mL (≈ 26.1 µM)
